The values below come from patent publication US20230339878A1, “SLC26A3 INHIBITORS AND USE THEREOF” (THE REGENTS OF THE UNIVERSITY OF CALIFORNIA, priority 2018, published 2023).

In one experiment the target is T1, murine slc26a3 (Mus musculus, UniProt Q9WVC8).
T1 construct: host or cells: Fischer rat thyroid (FRT) cells expressing YFP, clonal line FRT-YFP-slc26a3
T1 sequence (Q9WVC8 1-757): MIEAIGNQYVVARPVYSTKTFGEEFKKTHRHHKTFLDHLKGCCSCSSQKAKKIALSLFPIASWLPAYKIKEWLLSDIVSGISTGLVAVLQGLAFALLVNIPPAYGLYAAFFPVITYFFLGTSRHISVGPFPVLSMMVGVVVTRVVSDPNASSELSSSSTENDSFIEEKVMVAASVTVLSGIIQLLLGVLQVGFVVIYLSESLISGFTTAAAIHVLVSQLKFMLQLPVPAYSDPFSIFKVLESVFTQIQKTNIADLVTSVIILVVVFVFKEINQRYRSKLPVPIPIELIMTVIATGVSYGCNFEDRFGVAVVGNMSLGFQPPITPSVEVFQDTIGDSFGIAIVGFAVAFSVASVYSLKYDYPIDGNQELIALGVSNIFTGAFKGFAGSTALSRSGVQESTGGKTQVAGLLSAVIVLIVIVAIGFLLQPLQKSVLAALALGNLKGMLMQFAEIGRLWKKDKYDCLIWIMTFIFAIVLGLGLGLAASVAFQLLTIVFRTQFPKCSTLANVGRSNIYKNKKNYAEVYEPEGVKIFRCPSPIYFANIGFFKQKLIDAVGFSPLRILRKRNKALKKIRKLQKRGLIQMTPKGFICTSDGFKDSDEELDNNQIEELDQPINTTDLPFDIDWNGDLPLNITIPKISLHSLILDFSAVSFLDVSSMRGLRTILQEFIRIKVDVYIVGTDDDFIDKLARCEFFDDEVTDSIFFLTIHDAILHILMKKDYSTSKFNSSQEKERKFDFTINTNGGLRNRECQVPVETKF
In words: slc26a3-mediated Cl-/I- exchange, YFP fluorescence quenching in FRT-YFP-slc26a3 cells. Format: cell-based.

Experiment [1] has as its system ENaC, CFTR or CaCC activity in human bronchial epithelial (HBE) cells. In words: Short-circuit current in well-differentiated HBE cells. Format: cell-based. Conditions: 10 µM, pre-treatment 20 min; amiloride, forskolin, CFTRinh-172, ATP additions. An excerpt:
To investigate Compound A1 selectivity, transport assays were done on a panel of SLC26-family homologs, and other relevant epithelial ion transporters and channels. […] In separate studies, to investigate possible action of Compound A1 on multiple ion transporters and channels in a human epithelium, human bronchial epithelial (HBE) cells were studied by short-circuit current, with successive additions of amiloride (to block the epithelial sodium channel ENaC), forskolin, CFTRinh-172 (to block CFTR), and ATP (to activate the Ca^2+-activated chloride channel, CaCC) (FIG. 5C).
HEK293 cells transfected with pIRES-YFP-slc26a9 were plated in 96-well black-walled, clear-bottom tissue culture plates (Corning Life Sciences, Tewksbury, MA) after coating with FNC Coating Mix (AthenaES, Baltimore, MD). […] Assays of slc26a9-mediated anion exchange were done by initially recording YFP fluorescence prior to addition of 100 µL of NaI-substituted PBS to test wells, with the initial rate of Cl^-/I^- exchange deduced from fluorescence intensity by single exponential regression. […] To assay SLC26A3 function, HEK293 cells transduced with lentiviral particles generated from the pLVX-IRES-mCherry-SLC26A3 transfer vector were transfected to express YFP for Cl^-/I^- exchange assays as described above; red fluorescence images were acquired to confirm SLC26A3 expression in cells. […]

“Also recorded” adds a separate entry of the source.

Regarding `Cc1c(CC(=O)O)c(=O)oc2c(C)c(OCc3cccc(Br)c3)ccc12` [Compound A1], the t½ for inhibition on murine slc26a3 (1 µM, incubation for different times prior to Cl-/I- exchange) is recorded as ~ 30 s. The IC50 at murine slc26a3 (summary over three anion exchange modes, read-out: IC50 for slc26a3-mediated Cl- exchange with HCO3-, I- and SCN-) is about 200 nM. For the same compound, the “effect on short-circuit current responses” value in experiment [1] is listed as “did not alter short-circuit current responses; also recorded: differences not significant”.

A word on the IC50: it is the concentration that gives 50% inhibition.
